Test results published in ChEMBL document CHEMBL3045076, “Influence on Insecticidal Activity of the 3-(3,4-Methylenedioxyphenyl) Group in the 1,4-Benzodioxanyl Moiety of Haedoxan” (1992).
Calls of active or inactive are those of the source. The rule behind the calls is not given here.

Tests used:
[1] = tested on: Musca domestica; test: Insecticidal activity against Musca domestica (house fly) assessed as mortality measured per fly; format: functional
[2] = tested on: Musca domestica; test: Insecticidal activity against Musca domestica (house fly) assessed as increase in mortality; format: functional, organism-based

Compound	LD50 [1]	Activity [2]
COC[C@H]1Oc2cc([C@H]3OC[C@]4(O)[C@@H](Oc5c(OC)cc6c(c5OC)OCO6)OC[C@H]34)c(OC)cc2O[C@@H]1c1ccc2c(c1)OCO2 [(+)-HAEDOXAN A]	0.00025 µg	
CCCC[C@H]1Oc2cc(OC)c([C@H]3OC[C@]4(O)[C@@H](Oc5c(OC)cccc5OC)OC[C@H]34)cc2O[C@@H]1COC (mixture of isomers)	1 µg	
COC[C@H]1Oc2cc([C@H]3OC[C@]4(O)[C@@H](Oc5c(OC)cccc5OC)OC[C@H]34)c(OC)cc2O[C@H]1C (mixture of isomers)		inactive
COC[C@H]1Oc2cc([C@H]3OC[C@]4(O)[C@@H](Oc5c(OC)cccc5OC)OC[C@H]34)c(OC)cc2O[C@@H]1C (mixture of isomers)	1 µg	
